Source: ChEMBL document CHEMBL1157539, “Thousands of chemical starting points for antimalarial lead identification” (Nature, 2010)

Tested on: Plasmodium falciparum
Assay: GSK_TCMDC: Inhibition of Plasmodium falciparum 3D7 in whole erythrocytes, using parasite LDH activity as an index of growth.
Format: functional, organism-based
Conditions: not given

Row | Compound | XC50 [nM]
1 | O=C(/C=C/c1ccccc1O)NC1CCC(CN2CCC(c3c[nH]c4ccccc34)CC2)CC1 (stereo not drawn) | 461
2 | COc1ccc2nccc([C@@H](O)CN3CCC(NCc4nc5c(cc4Cl)SCC(=O)N5)C(F)C3)c2c1 (stereo partly drawn) | 759
3 | O=C1Nc2cccc3c2C1(CCCCN1CCC(c2cc4ccncc4[nH]2)CC1)CCC3 (stereo not drawn) | 911

Same assay, conditions: Plasmodium falciparum, 3D7

Row | Compound | XC50 [nM]
4 | CCOc1cc(C)ccc1C1CCN(CCN2CCC(CNC(=O)c3ccc(-c4ccc(C(F)(F)F)cc4)cc3)CC2)CC1 | 701
5 | CCCCn1c(N)c(N(Cc2ccco2)C(=O)C=Cc2cc(OC)c3c(c2)OCCO3)c(O)nc1=O | 946
6 | COc1ccccc1C1CCN(C2CCC(NC(=O)/C=C/c3cc(F)cc(C(F)(F)F)c3)CC2)CC1 (stereo not drawn) | 901
7 | O=C(Cc1cccs1)NCC(c1ccccc1Cl)c1c[nH]c2ccccc12 (stereo not drawn) | 1150
8 | CCCCN(CCCC)CCNC(=O)c1ccc(-c2nc3cc(Cl)ccc3[nH]2)c(OCC)c1 | 570
9 | FC(F)(F)c1ccc2[nH]c(-c3ccc(-c4cccc(CN5CCN(CCN6CCOCC6)CC5)c4)cc3)nc2c1 | 160
10 | CCN(CC)CCN(Cc1ccc(-c2ccc(C#N)cc2)cc1)C(=O)Cn1c(CCc2cccc(F)c2F)nc(=O)c2ccccc21 | 5.97
11 | Cc1ccc(S(=O)(=O)NC2CCN(c3ccnc4cc(Cl)ccc34)C2)cc1 (stereo not drawn) | 621
12 | CCCCCCCCCN(CCC)C(=O)[C@@H]1OC(C(=O)OC(c2ccccc2)c2ccccc2)=C[C@H](NC(=O)OC(C)(C)C)[C@H]1NC(C)=O | 640
13 | COc1ccc2nccc([C@@H](O)CN3CCC(NCc4cc5cc(Cl)ccc5[nH]4)CC3)c2c1 | 128
14 | Cc1ccc(S(=O)(=O)Nc2ccc(Nc3nccc(Nc4cccc5[nH]ncc45)n3)cc2)cc1 | 958
15 | Oc1c(Br)cc2oc3c(c2c1CNCc1ccccc1)CCCC3 | 961
16 | O=C(/C=C/c1ccc(Cl)c(Cl)c1)NCCCCCCN1CCCN(C(=O)Nc2ccc(F)c(F)c2)CC1 | 1240
17 | COc1ccc(Cl)cc1NC(=O)Nc1cc(C)nc2ccccc12 | 287
18 | COc1ccc(CNCc2ccsc2)cc1-c1ccc(OC)c(S(=O)(=O)NCCN2CCCC2)c1 | 917
19 | COc1ccc2ccccc2c1C=NN=c1cc[nH]c2ccc(F)cc12 | 1110
20 | CN1CCN(c2ccnc3ccc(NC(=O)Nc4c(Cl)cccc4Cl)cc23)CC1 | 877
21 | O=C(NC1CCN(Cc2ccccc2)C1)c1ccc(Nc2ccc(Br)cc2)nc1 (stereo not drawn) | 1080
22 | CCC(=O)N[C@@H]1CN[C@@H](C#Cc2cc3c(Nc4ccc(OCc5cccc(F)c5)c(Cl)c4)ncnc3s2)C1 | 1120
23 | O=c1cc(NCCCNCc2[nH]c3cc(Cl)cc(Cl)c3c2Cn2cccn2)[nH]c2ccccc12 | 972
24 | COc1ccc(CC2(c3ccc(F)cc3)N=C(N)N(CCCc3cccnc3)C2=O)cc1 (stereo not drawn) | 668
25 | CCc1cn2c3c(cc(C(=O)N[C@@H](Cc4cc(F)cc(F)c4)[C@H](O)CNC4CCCCC4)cc13)N(C)S(=O)(=O)CC2 | 34.5
26 | NC(=O)COc1c(C2CCN(CCCCNC(=O)c3ccc(-c4ccc(Cl)cc4)c(O)c3)CC2)ccc2c1CCCC2 | 706
27 | O=C(c1ccc(-c2ccc(-c3nc4cc(C(F)(F)F)ccc4[nH]3)s2)cc1)N1CCCCC1CN1CCC(O)C1 (stereo not drawn) | 560

Row | Compound | XC50 [nM]
28 | CC[C@H]1CN2CCc3c([nH]c4ccccc34)[C@@H]2C[C@@H]1CC1c2cc(OC)c(OC)cc2CCN1C (stereo partly drawn) | 1090
29 | CC1(C)NC(N)=NC(=N)N1OCCOc1cccc(C(F)(F)F)c1 | 3.2
30 | Cc1ccc2[nH]c3ccccc3c(=O)c2c1 | 863
31 | COc1ccc2ncc(F)c(CCN3C[C@H](CNCc4cc(F)c5c(c4)NC(=O)CO5)[C@H](O)C3)c2n1 | 667
32 | COc1ccc2[nH]cc(C3=CCN(Cc4ccccc4)CC3)c2c1 | 569
33 | COc1cccc(CC(=O)N2CCC(n3c(C)nc4ccc(F)cc43)CC2)c1 | 906
34 | CC(C)(C)OC(=O)NCc1ccc(Nc2nnc(-c3cccc(OCC(=O)NCc4cc(C(F)(F)F)cc(C(F)(F)F)c4)c3)o2)cc1 | 832
35 | NC1CCN(c2nc(NCCCc3ccc(O)cc3)nc(NCc3cccc4ccccc34)n2)CC1 | 724
36 | FC(F)(F)c1cccc(CNCC2CCN(CC3CCCCC3)CC2)c1 | 402
37 | CCCCCc1cc(O)c2c(c1)OC(C)(C)CC2C1=CCN(Cc2ccccc2)CC1 (stereo not drawn) | 767
38 | CCn1ccc2c(N3CCCS3(=O)=O)cc(C(=O)N[C@@H](Cc3ccccc3)[C@H](O)CNC(C)(C)CCCC(C)C)cc21 | 491
39 | CC(=O)Nc1nc(C(=O)Nc2cccc(-c3ccc(-c4nc5cccc(C)c5[nH]4)cc3)c2)cs1 | 232
40 | CO/C(=C\C=C/c1cc2cc(Cl)c(Cl)cc2[nH]1)C(=O)NC1CC(C)(C)N(C)C(C)(C)C1 | 833
41 | CN(CCCNCc1ccc2ccccc2c1)CCCNCc1ccc2ccccc2c1 | 391
42 | COc1ccc2nccc([C@@H](O)CN3CCC(NCc4ccc5c(n4)NC(=O)CS5)C(F)C3)c2c1 (stereo partly drawn) | 912
43 | CC1CCCCN1CCCNC(=O)c1cccc(-c2cc3cc(Cl)c(Cl)cc3[nH]2)c1 (stereo not drawn) | 881
44 | COc1ccc(CN2CCCN(Cc3cccc(C(=O)Nc4ccc(C(C)(C)C)cc4)c3)CC2)cc1 | 891
45 | CC[C@H]1CN2CC[C@@H]1C[C@H]2[C@H](O)c1cc(-c2ccc(F)cc2)nc2ccc(O)cc12 | 140
46 | Cc1ccc(C(NC(=O)c2ccccc2)c2ccc3cccnc3c2O)cc1 (stereo not drawn) | 961
47 | Cc1cccc2nc(-c3ccc(-c4cccc(CNCc5ccc(S(C)(=O)=O)cc5)c4)s3)[nH]c12 | 334
48 | COc1cc(NC(=O)c2ccc3oc4ccccc4c3c2)ccc1OCCN1CCCCC1 | 924
49 | CCCc1ccc(S(=O)(=O)Nc2ccc3c(c2)CCC3)cc1 | 879
50 | CN(C)c1ccc(C=CC(=O)NC(=O)c2ccccc2O)cc1 | 227
51 | CCOc1cc(C(C)C)ccc1C1CCN(CCCCNC(=O)c2ccc(NC(=O)c3ccc(Cl)cc3)cc2)CC1 | 813

Row | Compound | XC50 [nM]
52 | FC(F)(F)c1ccc2[nH]c(-c3ccc(-c4cccc(CN5CCC(CCN6CCCCC6)CC5)c4)cc3)nc2c1 | 153
53 | CCc1ccc(C2CCN(CCCCNC(=O)c3ccc(-c4ccc(Cl)cc4)cc3)CC2)c(O)c1 | 891
54 | CC(CON1C(N)=NC(N)=NC1(C)C)Cc1ccc(Cl)cc1Cl (stereo not drawn) | 3.2
55 | CC1CN(c2cnn(Cc3ccc(NC(=O)Nc4ccc(F)cc4[N+](=O)[O-])cc3)c(=O)c2Cl)CC(C)N1 (stereo not drawn) | 808
56 | Cc1ccc(-c2cc(C(=O)Nc3ccc(S(=O)(=O)N(C)Cc4ccccc4)cc3)[nH]n2)c(O)c1 | 845
57 | COc1cc2nccc(Nc3ccc(OCc4ccc(NC(C)=O)cc4)cc3)c2cc1OC | 553
58 | CCOc1ccc(-n2nc3c(Cl)nnc(-c4ccccc4)c3c2-c2ccccc2)cc1 | 226
59 | Clc1cccc(Nc2ccc3c(N4CCCCC4)ncnc3n2)c1 | 577
60 | CC(=O)Nc1ccc(CN(Cc2cccc(OC(C)(C)C)c2)Cc2ccc3c(c2)OCCO3)cc1 | 136
61 | O=C(/C=C/c1ccccc1O)NC1CCC(CN2CCC(c3c[nH]c4ccccc34)CC2)CC1 (stereo not drawn) | 756
62 | OC1CCCN(Cc2ccc(-c3ccc(-c4nc5cc(F)ccc5[nH]4)s3)cc2)C1 (stereo not drawn) | 851
63 | CC(C)C(=O)NC(c1ccc(Cl)cc1)c1ccc2cccnc2c1O (stereo not drawn) | 873
64 | COc1ccc2nccc([C@@H](O)CN3CCC(NCc4nc5c(cc4Cl)SCC(=O)N5)C(F)C3)c2c1 (stereo partly drawn) | 505
65 | C=CCn1c(=N)c(C(=O)NC2CCCCC2)cc2c(=O)n3cccc(C)c3nc21 | 1040
66 | CCCCCCCN1CCC(CCNc2ccnc3ccc(OC)cc23)CC1 | 955
67 | Cc1cc(Cl)ccc1NC(=O)Nc1ccc2nccc(N3CCN(C)CC3)c2c1 | 394
68 | O=C(Nc1cccc(CN2CCCN(CC3CCCCC3)CC2)c1)c1ccc(Cl)c(Cl)c1 | 962
69 | CCOc1ccc(-c2noc(-c3c[nH]c4ccccc4c3=O)n2)cc1 | 205
70 | CCCCCCN1CCCN(Cc2ccc(C(=O)Nc3ccc(C(C)C)cc3)cc2)CC1 | 834
71 | Cc1cc(N)c2cc(NC(=O)c3cccc4ccccc34)ccc2n1 | 844
72 | CCN1CCC(NCc2ccc(-c3ccc(Cl)s3)cc2)CC1 | 939
73 | O=C(Nc1ccc(Cl)cc1)Nc1cccc(-c2cc(CNCCc3ccccc3)oc2-c2ccncc2)c1 | 279
74 | O=[N+]([O-])c1cccc(CNC2CCN(Cc3ccc(-c4ccccc4)cc3)CC2)c1 | 231
75 | Cc1cc(N[C@@H](CC(C)C)C(=O)NCCc2ccccc2)nc(Nc2ccccc2)n1 | 816

Row | Compound | XC50 [nM]
76 | CN1CCCN(Cc2cccc(-c3cccc(NS(=O)(=O)c4cccc5cccnc45)c3)c2)CC1 | 764
77 | NC1CCN(CCNCc2cccc(-c3ccc(-c4nc5cc(C(F)(F)F)ccc5[nH]4)cc3)c2)C1 (stereo not drawn) | 893
78 | CCOCCCn1c(=N)c(C(=O)NCc2ccc(OC)cc2)cc2c(=O)n3cccc(C)c3nc21 | 1060
79 | CC(=O)c1ccc(Nc2c(C(N)=O)cnc3cc(-c4c(C)noc4C)ccc23)cc1 | 195
80 | CC(CNC(=O)[C@H]1CNCCN1C(=O)CCCc1ccccc1)c1ccccc1 (stereo partly drawn) | 915
81 | CC(CN(C)C)C(=O)Nc1cccc(-c2ccc(-c3nc4ccccc4[nH]3)s2)c1 (stereo not drawn) | 743
82 | Nc1nc2c(ncn2OC[C@H]2COP(=O)(O)CO2)c(=O)[nH]1 | 569
83 | O=C(N[C@@H](CC1CCCCC1)C(=O)NC1CCCc2ccccc21)c1ccc(O)c(-c2cccc(C(F)(F)F)c2)c1 (stereo partly drawn) | 600
84 | NC1=NC2(CCCCC2)N(Cc2ccc(Cl)c(Cl)c2)C(N)=N1 | 623
85 | O=C1Nc2cccc3c2C1(CCCCN1CCC(c2cc4ccncc4[nH]2)CC1)CCC3 (stereo not drawn) | 787
86 | C=CCOC(=O)N1CCC(CNCc2cccc(-c3ccc(-c4nc5cccc(C)c5[nH]4)cc3)c2)C1 (stereo not drawn) | 251
87 | Cc1cc(=NN=Cc2ccc(F)cc2)c2cc(C(F)(F)F)ccc2[nH]1 | 228
88 | COc1c(C2CCN(CCCCNC(=O)c3ccc(NC(=O)c4ccc(C#N)cc4)cc3)CC2)ccc2c1CCCC2 | 292
89 | CC(C)(CNC(=O)[C@@H]1CCCCN1)c1nc(-c2ccc(Cl)c(O)c2)c(-c2ccncc2)[nH]1 | 841
90 | COc1cc2ccccc2c(OC)c1CCNCCCCNCCc1c(OC)cc2ccccc2c1OC | 891
91 | CC1CN(Cc2ccccc2)CCN1c1ccc(NC(=O)c2cccs2)cc1 (stereo not drawn) | 276
92 | Cc1cc(C(=O)NCc2ccc(-c3c(C)noc3C)cc2)n(-c2ccc(Cl)cc2)n1 | 531
93 | O=C(Nc1ccc(F)c([N+](=O)[O-])c1)Nc1cc(C(F)(F)F)ccc1Cl | 861
94 | Cn1nc(-c2ccc(CNC3CCc4ccccc43)cc2)c2cnc(NCCCN3CCCC3)nc21 (stereo not drawn) | 1110
95 | Cc1cc(OCc2ccncc2)cc2c1C(=O)CC(C)(C)O2 | 183
96 | O=S(=O)(c1csc2ccccc12)N(CCC(O)(C(F)(F)F)C(F)(F)F)Cc1cccc(O)c1 | 360
97 | CCCCCC(C)C(C)c1cc(O)c2c(c1)OC(C)(C)CC2=Cc1ccncc1 (stereo not drawn) | 213
98 | CC1(C)NC(N)=NC(=N)N1OCc1cccc(Cl)c1Cl | 3.2
